Assay results taken from ChEMBL document CHEMBL4765421, “Synthesis of natural 3'-Prenylchalconaringenin and biological evaluation of ameliorating non-alcoholic fatty liver disease and metabolic syndrome” (Eur J Med Chem, 2020).
Activity calls are given as the source filed them. No cut-off for these calls is given here.

Experiments:
Mus musculus [1] = test: Hypolipidemic activity in tyloxapol-induced Kunming mouse model of hyperlipidemia assessed as reduction in liver total cholesterol level administered orally measured after 24 hrs; assay type: functional, organism-based
HepG2 [2] = test: Hypolipidemic activity in oleic, palmitic, linoleic and arachidonic acid 29:47:18:6 (v/v)-induced hyperlipidemia in human HepG2 cells assessed as reduction in lipid content at 20 uM by Oil Red O staining based assay relative to control; assay type: functional; set-up: scale not given: the % may be the effect or the level left
HepG2 [3] = test: Hypolipidemic activity in oleic, palmitic, linoleic and arachidonic acid 29:47:18:6 (v/v)-induced hyperlipidemia in human HepG2 cells assessed as reduction in lipid content at 10 uM by Oil Red O staining based assay relative to control; assay type: functional; set-up: scale not given: the % may be the effect or the level left
HepG2 [4] = test: Hypolipidemic activity in oleic, palmitic, linoleic and arachidonic acid 29:47:18:6 (v/v)-induced hyperlipidemia in human HepG2 cells assessed as reduction in lipid content by Nile Red and DAPI staining based fluorescence microscopic analysis; assay type: functional, cell-based
3T3-L1 [5] = test: Hypolipidemic activity in mouse 3T3-L1 preadipocytes assessed as reduction in lipid content at 5 uM by Oil Red O staining based assay relative to control; assay type: functional; set-up: scale not given: the % may be the effect or the level left
3T3-L1 [6] = test: Activation of AMPK in mouse 3T3-L1 preadipocytes assessed as increase in ACC phosphorylation at 0.1 to 15 uM by Western blot analysis; assay type: cell-based; details: filed as activator, dose 0.1-15 µM
3T3-L1 [7] = test: Activation of AMPK in mouse 3T3-L1 matured adipocytes assessed as increase in AMPK phosphorylation at 1 uM by Western blot analysis relative to control; assay type: cell-based; details: filed as activator
Mus musculus [8] = test: Hypolipidemic activity in tyloxapol-induced Kunming mouse model of hyperlipidemia assessed as reduction in serum lipid level at 50 to 100 mg/kg, po measured after 24 hrs by macroscopic analysis; assay type: functional, organism-based; details: dose 50-100 mg/kg
Mus musculus [9] = test: Hypolipidemic activity in tyloxapol-induced Kunming mouse model of hyperlipidemia assessed as reduction in serum AST level administered orally measured after 24 hrs; assay type: functional, organism-based
Mus musculus [10] = test: Hypolipidemic activity in tyloxapol-induced Kunming mouse model of hyperlipidemia assessed as reduction in serum IL6 level at 50 to 100 mg/kg, po measured after 24 hrs; assay type: functional, organism-based; details: dose 50-100 mg/kg
Mus musculus [11] = test: Hypolipidemic activity in tyloxapol-induced Kunming mouse model of hyperlipidemia assessed as reduction in lipid level in liver at 50 to 100 mg/kg, po measured after 24 hrs by Oil Red O staining based assay; assay type: functional, organism-based; details: dose 50-100 mg/kg
Mus musculus [12] = test: Hypolipidemic activity in tyloxapol-induced Kunming mouse model of hyperlipidemia assessed as increase in appearance of hepatic lobules at 50 to 100 mg/kg, po measured after 24 hrs by Oil Red O staining based assay; assay type: functional, organism-based; details: dose 50-100 mg/kg
Mus musculus [13] = test: Hypolipidemic activity in tyloxapol-induced Kunming mouse model of hyperlipidemia assessed as reduction in liver LDL-C level administered orally measured after 24 hrs; assay type: functional, organism-based
Mus musculus [14] = test: Hypolipidemic activity in tyloxapol-induced Kunming mouse model of hyperlipidemia assessed as reduction in liver AST level administered orally measured after 24 hrs; assay type: functional, organism-based
Mus musculus [15] = test: Hypolipidemic activity in tyloxapol-induced Kunming mouse model of hyperlipidemia assessed as reduction in liver ALT level administered orally measured after 24 hrs; assay type: functional, organism-based
Mus musculus [16] = test: Hypolipidemic activity in tyloxapol-induced Kunming mouse model of hyperlipidemia assessed as spleen index at 100 mg/kg, po measured after 24 hrs (reference value: 3.87 +/- 0.05); assay type: functional
Mus musculus [17] = test: Hypolipidemic activity in tyloxapol-induced Kunming mouse model of hyperlipidemia assessed as epididymis white adipose tissue index at 100 mg/kg, po measured after 24 hrs (reference value: 23.43 +/- 3.10); assay type: functional
Mus musculus [18] = test: Hypolipidemic activity in tyloxapol-induced Kunming mouse model of hyperlipidemia assessed as kidney index at 50 mg/kg, po measured after 24 hrs (reference value: 11.20 +/- 0.58); assay type: functional
Mus musculus [19] = test: Hypolipidemic activity in tyloxapol-induced Kunming mouse model of hyperlipidemia assessed as spleen index at 50 mg/kg, po measured after 24 hrs (reference value: 3.87 +/- 0.05); assay type: functional
Mus musculus [20] = test: Hypolipidemic activity in tyloxapol-induced Kunming mouse model of hyperlipidemia assessed as perirenal white adipose tissue index at 50 mg/kg, po measured after 24 hrs (reference value: 18.14 +/- 1.44); assay type: functional
Mus musculus [21] = test: Hypolipidemic activity in tyloxapol-induced Kunming mouse model of hyperlipidemia assessed as epididymis white adipose tissue index at 50 mg/kg, po measured after 24 hrs (reference value: 23.43 +/- 3.10); assay type: functional
Mus musculus [22] = test: In vivo induction of AMPK in tyloxapol-induced Kunming mouse model of hyperlipidemia assessed as increase in AKT phosphorylation in white adipose tissue at 50 to 100 mg/kg, po measured after 24 hrs by Western blot analysis; assay type: functional, organism-based; details: dose 50-100 mg/kg
Mus musculus [23] = test: In vivo induction of AMPK in tyloxapol-induced Kunming mouse model of hyperlipidemia assessed as increase in AMPKalpha phosphorylation in white adipose tissue at 50 to 100 mg/kg, po measured after 24 hrs by Western blot analysis; assay type: functional, organism-based; details: dose 50-100 mg/kg
Mus musculus [24] = test: In vivo induction of AMPK in tyloxapol-induced Kunming mouse model of hyperlipidemia assessed as increase in AMPKalpha phosphorylation in liver at 50 to 100 mg/kg, po measured after 24 hrs by Western blot analysis; assay type: functional, organism-based; details: dose 50-100 mg/kg
Mus musculus [25] = test: In vivo induction of AMPK in tyloxapol-induced Kunming mouse model of hyperlipidemia assessed as increase in CPT-1A phosphorylation in liver at 50 to 100 mg/kg, po measured after 24 hrs by Western blot analysis; assay type: functional, organism-based; details: dose 50-100 mg/kg
Mus musculus [26] = test: In vivo induction of AMPK in tyloxapol-induced Kunming mouse model of hyperlipidemia assessed as decrease in FAS expression in white adipose tissue at 50 to 100 mg/kg, po measured after 24 hrs by Western blot analysis; assay type: functional, organism-based; details: dose 50-100 mg/kg
Mus musculus [27] = test: In vivo induction of AMPK in tyloxapol-induced Kunming mouse model of hyperlipidemia assessed as decrease in FAS expression in liver at 50 to 100 mg/kg, po measured after 24 hrs by Western blot analysis; assay type: functional, organism-based; details: dose 50-100 mg/kg
Mus musculus [28] = test: In vivo effect on PPAR signaling in tyloxapol-induced Kunming mouse model of hyperlipidemia assessed as increase in mTOR phosphorylation in liver administered orally measured after 24 hrs by Western blot analysis; assay type: functional, organism-based
Mus musculus [29] = test: In vivo effect on PPAR signaling in tyloxapol-induced Kunming mouse model of hyperlipidemia assessed as increase in mTOR phosphorylation in white adipose tissue administered orally measured after 24 hrs by Western blot analysis; assay type: functional, organism-based
Mus musculus [30] = test: In vivo effect on PPAR signaling in tyloxapol-induced Kunming mouse model of hyperlipidemia assessed as increase in PPARalpha expression in white adipose tissue at 50 to 100 mg/kg, po measured after 24 hrs by Western blot analysis; assay type: functional, organism-based; details: dose 50-100 mg/kg
Mus musculus [31] = test: In vivo effect on PPAR signaling in tyloxapol-induced Kunming mouse model of hyperlipidemia assessed as increase in PPARalpha expression in liver at 50 to 100 mg/kg, po measured after 24 hrs by Western blot analysis; assay type: functional, organism-based; details: dose 50-100 mg/kg
Mus musculus [32] = test: In vivo effect on PPAR signaling in tyloxapol-induced Kunming mouse model of hyperlipidemia assessed as increase in PPARbeta expression in liver at 50 to 100 mg/kg, po measured after 24 hrs by Western blot analysis; assay type: functional, organism-based; details: dose 50-100 mg/kg

CC(C)=CCC/C(C)=C/Cc1c(O)cc(O)c(C(=O)/C=C/c2ccc(O)cc2)c1O
Activity (Mus musculus [1]): Dose-dependent effect
Activity (HepG2 [2]): 66.31%
Activity (HepG2 [3]): 54.38%
Activity (HepG2 [4]): Dose-dependent effect
Activity (3T3-L1 [5]): 49.29%
Activity (3T3-L1 [6]): Active
Activity (3T3-L1 [7]): 49%
Activity (Mus musculus [8]): Active
Activity (Mus musculus [9]): Dose-dependent effect
Activity (Mus musculus [10]): Active
Activity (Mus musculus [11]): Active
Activity (Mus musculus [12]): Active
Activity (Mus musculus [13]): Dose-dependent effect
Activity (Mus musculus [14]): Dose-dependent effect
Activity (Mus musculus [15]): Dose-dependent effect
Activity_index (Mus musculus [16]): 2.62
Activity_index (Mus musculus [17]): 12.35
Activity_index (Mus musculus [18]): 9.46
Activity_index (Mus musculus [19]): 2.8
Activity_index (Mus musculus [20]): 9.52
Activity_index (Mus musculus [21]): 14.85
Activity (Mus musculus [22]): Active
Activity (Mus musculus [23]): Active
Activity (Mus musculus [24]): Active
Activity (Mus musculus [25]): Active
Activity (Mus musculus [26]): Active
Activity (Mus musculus [27]): Active
Activity (Mus musculus [28]): Dose-dependent effect
Activity (Mus musculus [29]): Dose-dependent effect
Activity (Mus musculus [30]): Active
Activity (Mus musculus [31]): Active
Activity (Mus musculus [32]): Active
